According to US5254565A, “Quinoline derivatives, their production and use” (priority 1988, dated 1993):

Legend:
[1] = tested on: plasma cholesterol; assay: Plasma cholesterol lowering activity in cholesterol fed rat; type: in vivo, rat (7-week old, male Sarague Dawley rats); details: diet containing 0.0005% of test compound for 4 days; mean ± standard deviation; control 240 ± 85; *p < 0.05 (t test vs control group); Dose (mg/kg/day): 23 0.40 ± 0.03, 30 0.45 ± 0.02, 32 0.43 ± 0.04
Protocol: 2. Plasma cholesterol lowering activity in cholesterol fed rat.
1% Cholesterol diet (containing 0.5% of cholic acid and 5% of olive oil) was fed to 7-week old, male Sarague Dawley rats for 3 days. The rats were grouped by the plasma cholesterol level, and fed by the same diet containing 0.0005% of a test compound for 4 days. Blood was collected from rats during 8:30-10:00 am at the fed state, and the plasma cholesterol level was measured enzymatically. The amount of a test compound consumed by rats was calculated on the basis of the amount of the diet consumed by the rats.

[2] = molecular target: T1, Acyl-CoA : cholesterol acyltransferase (ACAT) (Rattus norvegicus, UniProt Q7TQM4); assay: Acyl-CoA : cholesterol acyltransferase (ACAT) inhibitory activity: production of labeled cholesterol ester from [1-^14 C] oleoyl-CoA and endogenous cholesterol; type: biochemical; details: read-out: ACAT Inhibition Rate; for inhibition at 1 µM: 10^-6 M test compound; for inhibition at 0.01 µM: 10^-8 M test compound
T1 construct: from the mucosal microsome fraction of the small intestine of male, 6-week old Sprague-Dawley rats; from tissue; host or cells: mucosal microsome fraction of the small intestine of male 6-week old Sprague-Dawley rats, fasted for 20 hours
T1 sequence (Q7TQM4 1-524): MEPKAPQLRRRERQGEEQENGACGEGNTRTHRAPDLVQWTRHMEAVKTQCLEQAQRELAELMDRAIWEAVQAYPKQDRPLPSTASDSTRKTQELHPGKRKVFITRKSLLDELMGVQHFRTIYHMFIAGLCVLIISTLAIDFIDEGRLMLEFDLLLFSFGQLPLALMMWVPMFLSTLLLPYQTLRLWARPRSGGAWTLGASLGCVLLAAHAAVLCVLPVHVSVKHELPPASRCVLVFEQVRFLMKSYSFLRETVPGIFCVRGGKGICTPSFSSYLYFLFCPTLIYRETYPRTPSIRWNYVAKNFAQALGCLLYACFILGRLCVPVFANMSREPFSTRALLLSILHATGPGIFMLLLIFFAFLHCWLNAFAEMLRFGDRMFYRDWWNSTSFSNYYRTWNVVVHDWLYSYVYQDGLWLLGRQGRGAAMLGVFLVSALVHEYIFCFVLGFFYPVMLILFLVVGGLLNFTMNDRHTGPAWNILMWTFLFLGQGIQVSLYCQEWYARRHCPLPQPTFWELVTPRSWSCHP
Protocol: 1. Acyl-CoA : cholesterol acyltransferase (ACAT) inhibitory activity.
The enzyme ACAT was prepared by the method of Heider et al. described in Journal of Lipid Research, Vol. 24, page 1127 (1982), from the mucosal microsome fraction of the small intestine of male, 6-week old Sprague-Dawley rats which had been fasted for 20 hours.
ACAT activity was calculated by the method of Helgerud et al. described in Journal of Lipid Research, Vol. 22, page 271 (1981), namely, by measuring the amount of the labeled cholesterol ester produced from [1-^14 C] oleoyl-CoA and endogenous cholesterol.
Inhibition rates (%) of the production of the labeled cholesterol ester wherein 10^-6 M-10^-8 M of test compounds were added are shown as an index of ACAT inhibitory activity in Table 1.

Row | SMILES | inhibition at 1 µM [2] [%] | other results
1 | Cc1cc(C)c2ncc(NC(=O)Nc3ccc(F)cc3F)c(-c3ccccc3Cl)c2c1 [Example 32, 4-(2-Chlorophenyl)-3-[3-(2,4-difluorophenyl)ureido]-6,8-dimethylquinoline] | 98.9 | Plasma Cholesterol [1]: 119 ± 46 mg/dL; inhibition at 0.01 µM [2]: 52.1%
2 | Cc1cc(C)c2ncc(NC(=O)Nc3cc(C)c(O)c(C)c3C)c(-c3ccccc3Cl)c2c1 [Example 81, 4-(2-Chlorophenyl)-3-[3-(4-hydroxy-2,3,5-trimethylphenyl)ureido]-6,8-dimethylquinoline] | 97.9 | 
3 | Cc1cc(Cl)cc2c(-c3ccccc3Cl)c(NC(=O)Nc3ccc(F)cc3F)cnc12 [Example 38, 6-Chloro-4-(2-chlorophenyl)-3-[3-(2,4-difluorophenyl)ureido]-8-methylquinoline] | 98.3 | 
4 | COc1ccc(-c2c(NC(=O)Nc3ccc(F)cc3F)cnc3ccc(Cl)cc23)c(O)c1OC [Example 69, 6-Chloro-3-[3-(2,4-difluorophenyl)ureido]-4-(2-hydroxy-3,4-dimethoxyphenyl)quinoline] | 78.2 | 
5 | COc1ccc(-c2c(NC(=O)Nc3ccc(F)cc3F)cnc3ccc(Cl)cc23)cc1 [Example 28, 6-Chloro-3-[3-(2,4-difluorophenyl)ureido]-4-(4-methoxyphenyl)quinoline] | 92.7 | 
6 | CSc1ccc2ncc(NC(=O)Nc3ccc(F)cc3F)c(-c3ccccc3)c2c1 [Example 37, 3-[3-(2,4-Difluorophenyl)ureido]-6-methylthio-4-phenylquinoline] | 87.8 | 
7 | O=C(Nc1ccc(F)cc1F)Nc1cnc2ccc(Cl)cc2c1-c1ccccc1F [Example 22, 6-Chloro-3-[3-(2,4-difluorophenyl)ureido]-4-(2-fluorophenyl)quinoline] | 96.8 | 
8 | Cc1cc(C)c2c(c1)c(-c1ccccc1Cl)c(NC(=O)Nc1ccc(F)cc1F)c[n+]2[O-] [Example 63, 4-(2-chlorophenyl)-3-[3-(2,4-difluorophenyl)ureido]-6,8-dimethylquinoline 1-oxide] | 94.4 | 
9 | O=C(Nc1ccc(F)cc1F)Nc1cnc2ccc(F)cc2c1-c1ccccc1Cl [Example 36, 4-(2-Chlorophenyl)-3-[3-(2,4-difluorophenyl)ureido]-6-fluoroquinoline] | 95.6 | 
10 | Cc1cc2c(-c3ccccc3Cl)c(NC(=O)Nc3ccc(F)cc3F)cnc2c(C)c1C [Example 74, 4-(2-Chlorophenyl)-3-[3-(2,4-difluorophenyl)ureido]-6,7,8-trimethylquinoline] | 99.3 | 
11 | Cc1cccc2ncc(NC(=O)Nc3ccc(F)cc3F)c(-c3ccccc3Cl)c12 [Example 83, 4-(2-Chlorophenyl)-3-[3-(2,4-difluorophenyl)ureido]-5-methylquinoline] | 87.3 | 
12 | Cc1cc(C)c2ncc(NC(=O)Nc3cc(C)c(O)c(C)c3)c(-c3ccccc3Cl)c2c1 [Example 80, 4-(2-Chlorophenyl)-3-[3-(4-hydroxy-3,5-dimethylphenyl)ureido]-6,8-dimethylquinoline] | 95.9 | 
13 | Cc1cc2ncc(NC(=O)Nc3ccc(F)cc3F)c(-c3ccccc3Cl)c2cc1C [Example 73, 4-(2-Chlorophenyl)-3-[3-(2,4-difluorophenyl)ureido]-6,7-dimethylquinoline] | 99.6 | 
14 | Cc1ccc(-c2c(NC(=O)Nc3ccc(F)cc3F)cnc3ccc(Cl)cc23)cc1 [Example 26, 6-Chloro-3-[3-(2,4-difluorophenyl)ureido]-4-(4-methylpheynyl)quinoline] | 87.4 | 
15 | O=C(Nc1ccc(F)cc1F)Nc1cnc2ccc(C(F)(F)F)cc2c1-c1ccccc1 [Example 17, 3-[3-(2,4-Difluorophenyl)ureido]-4-phenyl-6-trifluoromethylquinoline] | 90.1 | 
16 | CC(=O)Oc1c(C)cc(NC(=O)Nc2cnc3c(C)cc(C)cc3c2-c2ccccc2Cl)cc1C [Example 77, 3-[3-(4-Acetoxy-3,5-dimethylphenyl)ureido]-4-(2-chlorophenyl)-6,8-dimethylquinoline] | 96.2 | 
17 | CSc1ccccc1-c1c(NC(=O)Nc2ccc(F)cc2F)cnc2ccc(Cl)cc12 [Example 52, 6-Chloro-3-[3-(2,4-difluorophenyl)ureido]-4-(2-methylthiophenyl)quinoline] | 97.9 | 
18 | Cc1cc(C)c2ncc(NC(=O)Nc3ccc(Cl)cc3)c(-c3ccccc3Cl)c2c1 [Example 51, 4-(2-Chlorophenyl)-3-[3-(4-chlorophenyl)ureido]-6,8-dimethylquinoline] | 97.2 | 
19 | Cc1ccc2ncc(NC(=O)Nc3ccc(F)cc3F)c(-c3ccccc3Cl)c2c1 [Example 30, 4-(2-Chlorophenyl)-3-[3-(2,4-difluorophenyl)ureido]-6-methylquinoline] | 98.5 | Plasma Cholesterol [1]: 143 ± 21 mg/dL
20 | CCCCc1ccc2ncc(NC(=O)Nc3ccc(F)cc3F)c(-c3ccccc3Cl)c2c1 [Example 35, 6-Butyl-4-(2-chlorophenyl)-3-[3-(2,4-difluorophenyl)ureido]quinoline] | 97 | 
21 | COc1cc(NC(=O)Nc2cnc3c(C)cc(C)cc3c2-c2ccccc2Cl)cc(OC)c1OC [Example 64, 4-(2-chlorophenyl)-6,8-dimethyl-3-[3-(3,4,5-trimethoxyphenyl)ureido]-quinoline] | 69.7 | 
22 | Cc1ccc2ncc(NC(=O)Nc3ccc(F)cc3F)c(-c3ccccc3C)c2c1 [Example 31, 3-[3-(2,4-Difluorophenyl)ureido]-6-methyl-4-(2-methylphenyl)quinoline] | 96.9 | 
23 | O=C(Nc1ccc(F)cc1F)Nc1cnc2ccc(Cl)cc2c1-c1ccccc1Cl [Example 23, 6-Chloro-4-(2-chlorophenyl)-3-[3-(2,4-difluorophenyl)ureido]quinoline] | 98 | Plasma Cholesterol [1]: 126 ± 33 mg/dL; inhibition at 0.1 µM ([2]; 10^-7 M test compound): 94.1%; inhibition at 0.01 µM [2]: 34.3%
24 | O=C(Nc1ccc(Cl)cc1)Nc1cnc2ccc(Cl)cc2c1-c1ccccc1Cl [Example 50, 6-Chloro-4-(2-Chlorophenyl)-3-[3-(4-chlorophenyl)ureido]quinoline] | 96.8 | 
25 | CC(=O)Oc1c(C)cc(NC(=O)Nc2cnc3c(C)cc(C)cc3c2-c2ccccc2Cl)c(C)c1C [Example 78, 3-[3-(4-Acetoxy-2,3,5-trimethylphenyl)ureido]-4-(2-chlorophenyl)-6,8-dimethylquinoline] | 98.2 | 
